In paper PMC5222590 (Structure(London, England:1993), 2017):

Biological target: T1, FusA (Streptococcus pneumoniae, UniProt A0A0H2URD6)
T1 sequence (A0A0H2URD6 47-538): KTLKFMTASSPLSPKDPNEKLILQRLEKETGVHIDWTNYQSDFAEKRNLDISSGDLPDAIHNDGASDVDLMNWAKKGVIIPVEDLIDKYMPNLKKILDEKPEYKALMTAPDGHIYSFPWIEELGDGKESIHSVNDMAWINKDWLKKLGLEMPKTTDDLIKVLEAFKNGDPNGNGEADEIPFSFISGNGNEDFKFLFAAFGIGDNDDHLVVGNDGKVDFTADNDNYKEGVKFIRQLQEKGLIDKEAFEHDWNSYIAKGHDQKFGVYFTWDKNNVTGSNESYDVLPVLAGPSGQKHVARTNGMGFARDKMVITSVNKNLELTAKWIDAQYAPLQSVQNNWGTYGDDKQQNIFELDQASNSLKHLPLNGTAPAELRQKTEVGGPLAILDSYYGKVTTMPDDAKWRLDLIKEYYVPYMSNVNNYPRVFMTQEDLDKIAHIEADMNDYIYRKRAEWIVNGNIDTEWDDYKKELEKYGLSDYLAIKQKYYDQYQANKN
Assay: ITC
Type: binding
Conditions: pH 7.4, 0.15 M NaCl, 25 °C; 1:1

## OC[C@H]1O[C@@](CO)(OC[C@@]2(OC[C@@]3(O[C@H]4O[C@H](CO)[C@@H](O)[C@H](O)[C@H]4O)O[C@H](CO)[C@@H](O)[C@@H]3O)O[C@H](CO)[C@@H](O)[C@@H]2O)[C@@H](O)[C@@H]1O [GF3, nystose]
  KD: FusA had submicromolar affinity for fructofuranosyl-nystose and nystose
